# Measurements published in patent US20150252049A1, “MGLU2/3 ANTAGONISTS FOR THE TREATMENT OF AUTISTIC DISORDERS” (Hoffmann-La Roche Inc., priority 2012, published 2015).
# Tested on: BTBR T+tf/J (BTBR) mice
# Test: 3-Chambered Social Test (animal vs. object)
# Type: in vivo, mouse
# Conditions: male BTBR-T+/tfj mice, 3-10-30 mg/kg p.o. 3 hours before habituation; effect especially in the first 5 minutes at 10 mg/kg (FIG. 2/3)
# Experimental: Deficits in social interactions and social approach, unusual patterns of ultrasonic vocalization, and high levels of repetitive self-grooming are included.^20
# The 3-Chambered Social Test is used to assess autistic-like behaviors. Shortly after a period of habituation a mouse's sociability is determined by evaluating the amount of time the test mouse spends approaching a wire cage (holding cup) containing an unfamiliar mouse.
# 48 male mice BTBR-T+/tfj, 8-9 weeks old, were used in the experiments described herein in 4 groups n=12/group. Further, 6 male stimulus mice (unfamiliar BTBR T+tf/J mice) of similar age and weight were used.
# Low light of 20 Lux was used. With the doorways into the two side chambers closed, the test mouse was placed in the middle chamber and allowed to explore the apparatus for 10 min. Thereafter, the doorways were opened and the test mouse was allowed to explore the entire test box for 10 min. The cages were empty. The sociability test was conducted immediately following the habituation phase.
# While the test mouse was enclosed in the center compartment of the test box a stimulus mouse was enclosed in a wire cage (holding cup) in one side chamber. […] The amount of time spent and the number of entries into each chamber was measured, as was the time spent in a small perimeter around the cup holding the stimulus mouse. […]
smiles,measurement,value
CCC(=O)NS(=O)(=O)c1cccc(-c2cccc(-c3cc(-c4ccc(C(F)(F)F)cc4)cc(C)n3)n2)c1 [IIb],"social preference (duration in the chamber, duration sniffing)",increased social preference
